Experimental data from patent US20240280565A1, “EX VIVO HUMAN MODEL INTENDED FOR EVALUATING ALLERGIC OR PSEUDO-ALLERGIC INFLAMMATORY POTENTIAL” (GENOSKIN, priority 2021, published 2024).
Non-standard residues stand in square brackets, D forms with d. Residues, ends and D or L forms follow the SMILES beside them. dPhe(4-Cl) = N[C@H](Cc1ccc(Cl)cc1)C(=O)O; d2Nal = N[C@H](Cc1ccc2ccccc2c1)C(=O)O; dCit = NC(=O)NCCC[C@@H](N)C(=O)O; d3Pal = N[C@H](Cc1cccnc1)C(=O)O

Test system: skin explant
Assay: Inflammatory potential: cytokine assay in culture medium or matrix of injected skin explant
Assay type: cell-based, human
Settings: 100 μL CETROTIDE solution, cetrorelix 0.25 mg/l mL, injected into adipose tissue of explant
Description: A CETROTIDE solution of 100 μL with a cetrorelix concentration of 0.25 mg/l mL (luteinizing hormone inhibitor that competes by binding to its receptor) was injected into the adipose tissue of an explant, as described previously, using a syringe and a 12 mm long, 27 G needle. As a negative and positive control, 100 μL of a PBS solution and 100 μL of a concentrated solution of compound 48/80 (50 μg/mL, an MRGPRX2 agonist), respectively, were each injected into the adipose tissue of different explants, as described previously.
The culture medium or matrix supporting the explants are collected and an assay of cytokines is conducted using an ELISA-type methods or any other type of method intended to detect and quantify the presence of cytokines.

Compound: CC(=O)N[C@H](Cc1ccc2ccccc2c1)C(=O)N[C@H](Cc1ccc(Cl)cc1)C(=O)N[C@H](Cc1cccnc1)C(=O)N[C@@H](CO)C(=O)N[C@@H](Cc1ccc(O)cc1)C(=O)N[C@H](CCCNC(N)=O)C(=O)N[C@@H](CC(C)C)C(=O)N[C@@H](CCCNC(=N)N)C(=O)N1CCC[C@H]1C(=O)N[C@H](C)C(N)=O [cetrorelix] (Ac-[d2Nal][dPhe(4-Cl)][d3Pal]SY[dCit]LRP[dA]-NH2)
- Inflammatory potential (cytokines): confirmed the inflammatory potential
